Assay results from ChEMBL document CHEMBL1143441, “New classes of Gram-positive selective antibacterials: inhibitors of MRSA and surrogates of the causative agents of anthrax and tuberculosis” (2008).
≈ marks a conversion by molar mass, not a printed value.

Test system: Mycobacterium tuberculosis
Test: Antimicrobial activity against Mycobacterium bovis BCG by NCCLS M7-A6 method
Type: functional
Conditions: variant bovis BCG

COc1cc(O)cc(/C=C/c2ccccc2)c1 [PINOSYLVIN METHYL ETHER]
MIC: 26 µg/mL (≈ 115 µM)
